Reference: patent US20120071539A1, “COMPOUNDS AND METHODS FOR MODULATING THE SILENCING OF A POLYNUCLEOTIDE OF INTEREST” (Emory University, priority 2006, published 2012)
“And” between values parts separate entries of the source, which are not always exact repeats. Identical values can stand only once. “Also recorded” adds a separate entry of the source.

What was measured:
bladder cancer cells = conditions: cited from earlier work
tumor cell models = conditions: cited from earlier work
RNAi-293-EGFP/RFP cells = test: dose-response of GFP/RFP signal ratio in RNAi-293-EGFP/RFP cells; type: cell-based; conditions: at 5 μM; 48 hours; versus Enoxacin 50 μM and 100 μM
Procedure: FIGS. 11A-11D show drug dose-responses for representative metal/Fe chelators. RNAi-293-EGFP/RFP cells were treated with each compound for 48 hours and the GFP/RFP signal ratio was plotted for relative RNAi-enhancing activity (%) using E50 (Enoxacin at 50 μM) as 100% activity.
An additional chemical library screen was performed to identify enhancers and suppressors of RNAi activity. In this screen, RNAi-293-EGFP cells were treated with compounds from a chemical library and endogenous RNAi activity was measured by GFP readout. Four particular compounds were identified in this screen. Further, all four compounds identified in this screen have metal/Fe chelating ability.
These four compounds were further tested by obtaining a drug dose-response curve for each compound at a wide range of concentrations in RNAi-293-EGFP/RFP. After 48 hours, GFP signals were measured by SpectraMax M2^e (Molecular Devices Corporation, Sunnyvale, Calif.). The GFP signals were then normalized over RFP signals to account for variability of cell numbers among wells and then plotted for relative RNAi-enhancing activity, which is set to 100% for a known RNAi-enhancing small molecule, e.g., Enoxacin at 50 μM.

[1] = tested on: siRNA-mediated mRNA degradation; test: cell-based reporter screen: human 293 cells stably expressing GFP plus siRNA hairpin against GFP; conditions: pilot screen of The Spectrum Collection; FIG. 3, FIG. 4
Procedure: FIG. 2 discloses one embodiment of the cell-based reporter system of the invention. In this example, a human 293-cell line stably expressing a reporter gene, GFP, was used. This cell line was further transfected with a construct that expresses siRNA hairpin against GFP, which can decrease the level of GFP expression. Individual clones were isolated with greatly (although not completely) reduced GFP expression.
Using the above-identified clones, a screen was performed using The Spectrum Collection (MicroSource Discovery Systems, Inc., Gaylordsville, Conn., United States of America), which contains 2000 biologically active and structurally diverse compounds from libraries of known drugs, experimental bioactives, and pure natural products. For example, in one embodiment, a pilot screen of this library identified one inhibitor and one enhancer of siRNA-mediated mRNA degradation.
To identify the chemical compounds that modulate the siRNA and miRNA pathway, a screening strategy was used. A human 293-cell line stably expressing a reporter gene, GFP, was used. This cell line was further transfected with a construct that expresses siRNA hairpin against GFP, which could knock down the expression of GFP. […] Using these clones, a screen was performed using The Spectrum Collection, which contains 2000 biologically active and structurally diverse compounds from libraries of known drugs, experimental bioactives, and pure natural products.
Human 293 cells stably expressing a reporter gene, GFP, were further transfected with a construct that expresses an siRNA hairpin against GFP, which results in the knock-down of the expression of GFP. Transfected cells containing the siRNA suppressed GPF expression were split and then treated with an effective amount of enoxacin (FIG. 4, second panel) and were grown for a period of 24-48 hours.

miR-30a-3p = test: miRNA sensor Luc-T30 dual luciferase assay; type: cell-based; conditions: endogenously expressed miR-30; FIG. 6, FIG. 7
Description: (A) Design of a siRNA duplex against miR-30a precursor (siRNA-p) and a control siRNA duplex (siRNA-c). The miR-30a precursor is provided as SEQ ID NO:1. The siRNA target region is represented by nucleotides 21-40 of SEQ ID NO:1. The siRNA-p is provided as SEQ ID NO:2 and the siRNA-c is provided as SEQ ID NO:3. The double stranded siRNA is shown on the bottom and predicted pairing between one siRNA strand (blue) and the precursor target (green).
In FIG. 6, top left panel, the blue arrowheads in Luc-T30 indicate artificial target sequence against miR-30a-3p. Luc-AT30 has an artificial sequence complementary to that in Luc-T30. […] Relative luciferase activity was calculated by dividing the reporter (Firefly) luciferase activity with co-transfected Renilla luciferase activity. Luciferase activity was decreased by transfecting Luc-T30 in HepG2 (orange bars) without changes in the amount of its mRNA (blue bars). Error bars represent the standard deviation (SD) of three triplicate experiments. […] Error bars represent the standard deviation (SD) from three triplicate experiments. **P=0.004; *****P=0.00001.
This reporter contains the target sequence of miR-30. In the miR-30 system, the endogenously expressed miR-30 was used and, in this cell line, miR-30 has been processed completely. Thus, the addition of enoxacin had no effect.

[2] = tested on: shRNA against Luciferase mRNA; test: GL-3 luciferase reporter in cells expressing shRNA against luciferase; type: cell-based; conditions: FIG. 5
Description: In this example, a luciferase reporter construct GL-3 was transfected into the cells expressing shRNA against Luciferase mRNA.

[3] = tested on: Clone#3, 293-EGFP-siGFP cells; test: plate-reader chemical library screen, GFP signal in Clone#3 cells; type: cell-based, human; conditions: 50 mM RNAi-E alone
Description: Further, in some embodiments, additional screens using the same library can be performed to identify other modulators of the siRNA and the miRNA pathways. In some embodiments, instead of examining the GFP signal visually under a microscope, the GFP signal can be quantified using an automatic plate reader. In such embodiments, two additional rounds of screening can be performed. In the first round of screening, the clones can be treated with compounds from a library, e.g., The Spectrum Collection, alone and the GFP level can be quantified after a period of time, e.g., 48 hours. In the second round of screening, the clones can be treated with compounds from a library, e.g., The Spectrum Collection, in the presence of 50 μM RNAi-E, i.e., enoxacin. This assay enables compounds that can modulate the activity of RNAi-E to be identified.
(§1) The presently disclosed chemical library also was screened using a plate reader to quantify the GFP signal intensity. The following screens were conducted: (1) repeating chemical screen using plate reader to quantify the GFP signal (50 mM each drug); (2) treating cells with 50 mM RNAi-I (30 mM each additional drug); and treating cells with […] (30 mM each additional drug).
(§2) For each screen, two types of cells were used: Clone#3 and EGFP. Clone#3 cells are 293-EGFP-siGFP and could be used to identify the modulators of the RNAi pathway. EGFP cells are 293-EGFP only and were used as a control to eliminate the compounds that could kill the cells or interfere GFP signals that are not related to RNAi pathway. The results for each screen are summarized in Table 2 and Table 3, respectively.
(§3) In these three screens, compounds were identified that could either enhance or inhibit RNAi activity in Clone#3, but had no effect on EGFP cells, which would indicate that these compounds might specifically work on RNAi pathway. The modulation of RNAi activity by these compounds was calculated as the percentage of GFP signal to Clone#3 control cells.

EGFP, 293-EGFP cells = test: plate-reader chemical library screen, GFP signal in control EGFP cells; type: cell-based, human; conditions: GFP signal; 50 mM RNAi-E
Procedure: as §1, §2, §3

miR-125a = test: Lin28 3'-UTR luciferase reporter in cells expressing miR-125a; type: cell-based
Description: Referring now to FIG. 8, the 3′-UTR of Lin28 mRNA, a target mRNA of miR-125a, was inserted into the 3′ end of luciferase reporter gene. Lin28-Del is the construct without the target sequence of miR-125a. Lin28 or Lin28-Del was transfected into cells expressing miR-125a. Although RNAi-E had no effect on Lin28-Del, the translation of Lin28 was suppressed by the expression of miR-125a.

**Q.** Which ferritin synthesis (bladder cancer cells) does the source give for c1ccc(CNC2CC(NCc3ccccn3)CC(NCc3ccccn3)C2)nc1 (centres unmarked) [Tachpyridine, tachpyridine] here?
**A.** The ferritin synthesis was “inhibit”.

**Q.** And the “proliferation of bladder cancer cells in culture” value (bladder cancer cells)?
**A.** Its value is “inhibit”.

**Q.** What about the anti-proliferative activity (tumor cell models) of the same compound?
**A.** The anti-proliferative activity was “anti-proliferative activity”.

**Q.** What does the source list for O=C(N/N=C/c1c(O)ccc2ccccc12)c1ccncc1 [compound 311, 2-hydroxy-1-naphthylaldehyde isonicotinoyl hydrazone]?
**A.** anti-proliferative activity (tumor cell models): anti-proliferative activity; also recorded: anti-proliferation activity; RNAi-enhancing activity relative to Enoxacin (RNAi-293-EGFP/RFP cells): more effective than Enoxacin

**Q.** For CCn1cc(C(=O)O)c(=O)c2cc(F)c(N3CCNCC3)nc21 [enoxacin], which “siRNA-mediated mRNA degradation and gene knock-down” value [1] is on record?
**A.** Its value is “enhance siRNA-mediated mRNA degradation and gene knock-down”.

**Q.** And the “miRNA-mediated translational suppression of Luc-T30 reporter” value (from here on “miRNA-mediated translational suppression”) (miR-30a-3p)?
**A.** The value was “no effect”.

**Q.** And the “knock-down efficiency of shRNA against luciferase mRNA” value [2]?
**A.** The value was “increased the knock-down efficiency”.

**Q.** And the “Clone#3, 293-EGFP-siGFP cells GFP signal intensity with RNAi-E” value [3]?
**A.** Its value is 20289248 and 16615771 and 18695953 and 20015152.

**Q.** And the “EGFP, 293-EGFP cells RNAi-E alone” value (EGFP, 293-EGFP cells)?
**A.** The value was 177574932 and 1.78E+08 and 229622488 and 212666320 and 2.13E+08 and 138649048.

**Q.** What about the “suppression of the translation of Lin28 by miR-125a” value (miR-125a; Lin28 construct, FIG. 8) of the same compound?
**A.** The value was “further enhanced this suppression”.

**Q.** And the “effect on Lin28-Del” value (miR-125a; construct without the target sequence of miR-125a)?
**A.** The value was “no effect”.

**Q.** For “siRNA-c: control siRNA duplex, SEQ ID NO:3 (UGGUAGCAGUCAUGGCACATT; chemistry not given here)”, which “miRNA-mediated translational suppression” value (miR-30a-3p) is on record?
**A.** Its value is “no effect”.

**Q.** For “siRNA-p: siRNA duplex against miR-30a precursor, SEQ ID NO:2 (UGGAAGCUGUGAAGCCACATT; chemistry not given here)”, which “miRNA-mediated translational suppression” value (miR-30a-3p) is on record?
**A.** The value was “reversed the translational suppression”.
